Measurements as given in the supplement of paper PMC10307832.

Key:
Assay in all cases: relative viability (nuclei count vs DMSO), 5 days (fraction); higher = more cells survive
XMD13-2 + Foretinib = compound: C1CC1C(=O)NC2=NNC3=C2C=CC(=C3)C4=CC(=CC=C4)C(=O)NC5CC5 [XMD13-2] + COc1cc2c(Oc3ccc(NC(=O)C4(C(=O)Nc5ccc(F)cc5)CC4)cc3F)ccnc2cc1OCCCN1CCOCC1 [Foretinib] (partner 0.25 µM)
Procedure, shortened: (§1)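 Relative viability equals treated-well nuclei counts divided by vehicle-well nuclei counts. Counts came from 4× images of lung cancer cell lines grown in 1536-well plates for 5 days after pin-tool dosing on the day after seeding. Dosing used one drug alone or a fixed anchor-drug dose plus five library-drug doses (not always all listed) in √10 steps, and values are medians of duplicate plates.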

Dasatinib + Bortezomib = compound: Cc1nc(Nc2ncc(C(=O)Nc3c(C)cccc3Cl)s2)cc(N2CCN(CCO)CC2)n1 [Dasatinib] + CC(C)C[C@H](NC(=O)[C@H](Cc1ccccc1)NC(=O)c1cnccn1)B(O)O [Bortezomib] (partner 0.002 µM)
Procedure, shortened: as §1

ALW-II-49-7 + Dasatinib = compound: Cc1ccc(C(=O)Nc2cccc(C(F)(F)F)c2)cc1Nc1cncc(C(N)=O)c1 [ALW-II-49-7] + Cc1nc(Nc2ncc(C(=O)Nc3c(C)cccc3Cl)s2)cc(N2CCN(CCO)CC2)n1 [Dasatinib] (partner 0.075 µM)
Procedure, shortened: as §1

ALW-II-49-7 + Vorinostat = compound: Cc1ccc(C(=O)Nc2cccc(C(F)(F)F)c2)cc1Nc1cncc(C(N)=O)c1 [ALW-II-49-7] + O=C(CCCCCCC(=O)Nc1ccccc1)NO [Vorinostat] (partner 1 µM)
Procedure, shortened: as §1

Row | Cell Line | relative viability (XMD13-2 + Foretinib; first compound 0.05 µM) | relative viability (XMD13-2 + Foretinib; first compound 0.1581 µM) | relative viability (XMD13-2 + Foretinib; first compound 0.5 µM) | relative viability (XMD13-2 + Foretinib; first compound 1.581 µM) | relative viability (XMD13-2 + Foretinib; first compound 5 µM) | relative viability (Dasatinib + Bortezomib; first compound 0.005 µM) | relative viability (Dasatinib + Bortezomib; first compound 0.01581 µM) | relative viability (Dasatinib + Bortezomib; first compound 0.05 µM) | relative viability (Dasatinib + Bortezomib; first compound 0.1581 µM) | relative viability (Dasatinib + Bortezomib; first compound 0.5 µM) | relative viability (ALW-II-49-7 + Dasatinib; first compound 0.08 µM) | relative viability (ALW-II-49-7 + Dasatinib; first compound 0.253 µM) | relative viability (ALW-II-49-7 + Dasatinib; first compound 0.8 µM) | relative viability (ALW-II-49-7 + Dasatinib; first compound 2.53 µM) | relative viability (ALW-II-49-7 + Dasatinib; first compound 8 µM) | relative viability (ALW-II-49-7 + Vorinostat; first compound 0.08 µM) | relative viability (ALW-II-49-7 + Vorinostat; first compound 0.253 µM) | relative viability (ALW-II-49-7 + Vorinostat; first compound 0.8 µM) | relative viability (ALW-II-49-7 + Vorinostat; first compound 2.53 µM) | relative viability (ALW-II-49-7 + Vorinostat; first compound 8 µM)
1 | ABC-1 | 0.949 | 1.1 | 1.41 | 1.03 | 0.846 | 0.295 | 0.303 | 0.247 | 0.269 | 0.351 | 0.501 | 0.627 | 0.506 | 0.656 | 0.483 | 1.05 | 1.2 | 1.13 | 0.78 | 1.27
2 | BEN | 0.802 | 0.829 | 0.654 | 0.53 | 0.737 | 0.628 | 0.439 | 0.425 | 0.315 | 0.362 | 0.378 | 0.341 | 0.348 | 0.325 | 0.305 | 0.557 | 0.723 | 0.592 | 0.441 | 0.558
3 | CAL-12T | 1.22 | 1.07 | 1.09 | 1.11 | 1.01 | 0.992 | 1.06 | 0.875 | 0.354 | 0.207 | 0.433 | 0.223 | 0.277 | 0.372 | 0.266 | 0.681 | 0.866 | 0.834 | 0.737 | 0.76
4 | COR-L23 | 1.14 | 0.986 | 0.977 | 0.986 | 0.942 | 0.938 | 0.849 | 0.862 | 0.654 | 0.646 | 0.483 | 0.419 | 0.45 | 0.443 | 0.523 | 0.409 | 0.452 | 0.496 | 0.414 | 0.385
5 | COR-L 105 | 1.16 | 1.19 | 0.729 | 0.883 | 0.899 | 0.611 | 0.51 | 0.498 | 0.318 | 0.273 | 0.304 | 0.308 | 0.326 | 0.272 | 0.329 | 0.772 | 0.911 | 0.688 | 0.809 | 0.967
6 | ChaGo-K-1 | 0.883 | 0.885 | 0.944 | 0.882 | 0.932 | 0.847 | 1.03 | 0.99 | 0.891 | 0.864 | 0.538 | 0.668 | 0.554 | 0.539 | 0.501 | 0.744 | 0.75 | 0.713 | 0.689 | 0.83
7 | EKVX | 0.919 | 0.746 | 0.699 | 0.64 | 0.83 | 0.929 | 0.807 | 0.87 | 0.501 | 0.146 | 0.382 | 0.481 | 0.546 | 0.425 | 0.454 | 0.407 | 0.747 | 0.734 | 0.678 | 0.636
8 | EMC-BAC-2 | 1.11 | 1.01 | 0.791 | 0.957 | 0.61 | 1.06 | 0.876 | 0.734 | 0.634 | 0.367 | 0.311 | 0.324 | 0.284 | 0.293 | 0.29 | 0.462 | 0.419 | 0.301 | 0.409 | 0.281
9 | EPLC-272H | 0.71 | 0.629 | 0.644 | 0.568 | 0.187 | 0.921 | 0.89 | 0.808 | 0.864 | 0.429 | 0.283 |  | 0.26 | 0.345 | 0.375 | 0.37 | 0.436 | 0.352 | 0.32 | 0.301
10 | H3255 | 0.886 | 0.891 | 0.893 | 0.696 | 0.984 | 0.795 | 0.749 | 0.623 | 0.504 | 0.299 | 0.436 | 0.234 | 0.431 | 0.322 | 0.348 | 0.925 | 0.804 | 0.813 | 0.735 | 0.686
11 | HARA | 1.1 | 0.854 | 0.834 | 1.01 | 0.616 | 1.19 | 0.881 | 0.897 | 0.501 | 0.184 | 0.351 | 0.272 | 0.148 | 0.22 | 0.161 | 0.608 | 0.597 | 0.634 | 0.594 | 0.58
12 | HCC-15 | 1.14 | 1 | 1.14 | 0.981 | 0.62 | 1.01 | 1.01 | 1.11 | 0.965 | 0.743 | 0.667 | 0.614 | 0.692 | 0.684 | 0.664 | 0.913 | 0.807 | 0.916 | 0.802 | 0.893
13 | HCC-78 | 0.541 | 0.539 | 0.502 | 0.51 | 0.487 | 0.419 | 0.381 | 0.463 | 0.385 | 0.225 | 0.475 | 0.466 |  | 0.361 | 0.383 | 0.428 | 0.358 | 0.408 | 0.342 | 0.485
14 | HCC-366 | 1.02 | 0.915 | 0.952 | 0.905 | 0.896 | 0.989 | 0.738 | 0.637 | 0.632 | 0.407 | 0.694 | 0.75 | 0.591 | 0.528 | 0.7 | 0.49 | 0.363 | 0.258 | 0.343 | 0.21
15 | HCC-827 | 1.11 | 1.04 | 0.951 | 1.05 | 0.704 | 1.08 | 1.03 | 1.07 | 0.981 | 0.48 | 0.326 | 0.331 | 0.294 | 0.232 | 0.239 | 0.9 | 0.803 | 0.787 | 0.813 | 0.883
16 | HOP-62 | 1.11 | 1.13 | 1.19 | 1.06 | 1 | 0.875 | 0.674 | 0.643 | 0.864 | 0.39 | 0.635 | 0.617 | 0.56 | 0.616 | 0.495 | 0.547 | 0.696 | 0.588 | 0.523 | 0.298
17 | LC-2-ad | 1.07 | 1.07 | 0.987 | 0.789 | 0.807 | 0.582 | 0.985 | 1.01 | 0.871 | 0.36 | 0.481 | 0.412 | 0.501 | 0.7 | 0.387 | 0.681 | 0.763 | 0.691 | 0.698 | 0.528
18 | LCLC-97TM1 | 1.04 | 0.918 | 0.975 | 0.965 | 0.685 | 0.525 | 0.561 | 0.735 | 0.665 | 0.461 | 0.808 | 0.944 | 0.808 | 0.88 | 0.851 | 0.96 | 0.683 | 0.642 | 0.685 | 0.49
19 | LCLC-103H | 0.759 | 0.726 | 0.735 | 0.61 | 0.575 | 0.987 | 1.06 | 1 | 0.918 | 0.613 | 0.392 | 0.429 | 0.393 | 0.419 | 0.411 | 0.79 | 0.763 | 0.658 | 0.71 | 0.618
20 | LOU-NH91 | 1.01 | 0.979 | 1 | 0.943 | 1.04 | 0.477 | 0.477 | 0.479 | 0.485 | 0.487 | 0.544 | 0.588 | 0.521 | 0.504 | 0.414 | 0.884 | 0.888 | 1 |  | 0.805
21 | LU99A | 0.977 | 0.734 | 0.831 | 0.824 | 0.58 | 1.11 | 0.973 | 1.03 | 0.812 | 0.573 | 0.62 | 0.486 | 0.576 | 0.498 | 0.75 |  | 0.525 | 0.507 | 0.5 | 0.619
22 | LXF-289 | 0.979 | 0.973 | 0.897 | 0.98 | 1.06 | 1.03 | 1.12 | 0.93 | 0.518 | 0.204 | 0.213 | 0.286 | 0.24 | 0.187 | 0.183 | 0.726 | 0.877 | 0.81 | 0.854 | 0.762
23 | NCI-H23 | 1.21 | 0.83 | 1.02 | 1.06 | 1.01 | 0.958 | 0.812 | 0.904 | 0.677 | 0.519 | 0.84 | 0.871 | 0.574 | 0.706 | 0.768 | 0.634 | 0.692 | 0.339 | 0.575 | 0.46
24 | NCI-H322M | 1.06 | 1.02 | 0.909 | 0.971 | 1.09 | 1.28 | 1.25 | 1.32 | 0.966 | 0.177 | 0.246 | 0.256 | 0.261 | 0.251 | 0.231 | 0.789 | 0.93 | 0.861 | 0.93 | 0.773
25 | NCI-H441 | 1.1 | 0.902 | 0.956 | 1.06 | 0.661 | 0.487 | 0.613 | 0.511 | 0.734 | 0.172 | 0.497 | 0.475 | 0.684 | 0.674 | 0.459 | 0.669 | 0.788 | 0.901 | 0.549 | 0.538
26 | NCI-H460 | 1.1 | 1.11 | 1.05 | 1.06 | 1.01 | 0.97 | 0.79 | 0.701 | 0.736 | 0.49 | 0.492 | 0.583 | 0.563 | 0.423 | 0.507 | 0.763 | 0.857 | 0.69 | 0.497 | 0.498
27 | NCI-H520 | 0.876 | 0.754 | 0.536 | 0.637 | 0.402 | 0.588 | 0.22 | 0.358 | 0.146 | 0.178 | 0.218 | 0.192 | 0.202 | 0.172 | 0.177 | 0.782 | 0.649 | 0.681 | 0.696 | 0.617
